Experimental data taken from patent publication US20100120887A1, “SUSTAINED RELEASE FORMULATION OF MELATONIN” (THE TRUSTEES OF COLUMBIA UNIVERSITY IN THE CITY OF NEW YORK, priority 2007, published 2010).

Test: Initial clinical evaluation, open clinical treatment of circadian sleep disorders and depression (case reports)
Format: in vivo, human
Description: The present invention describes tablet formulation, in vitro and in vivo pharmacokinetics in a healthy, middle-aged subject group, and a range of potential uses. In the past three years, the present invention has been used in open clinical treatment of a variety of cases comprising circadian sleep disorders and depression. The strategy for treatment concentrates on serious cases, from which application to less severe cases—far more common population-wide—can be inferred. For example, in Delayed Sleep Phase Disorder (DSPD), the patient cannot fall asleep before wee hours of the night or early morning because of misalignment of the internal circadian timing system with external day and night. […] Melatonin is the chronobiotic par exemplar. Milder circadian misalignment is highly prevalent in the population, often starting in adolescence. A typical example is the worker who must maintain a 9-5 schedule but cannot fall asleep before 1 AM (“early insomnia”), leaving six hours for sleep availability, leading to daytime fatigue, disorientation, lapses of alertness, and weekend oversleeping that can trigger depressed mood. Such people comprise a primary market for the present invention, with the prospect of reduced reliance on sleeping pills.
Thus far, an ensemble of chronotherapeutic interventions has been used in clinical trials. […]

## COc1ccc2[nH]cc(CCNC(C)=O)c2c1 [melatonin, N-acetyl-5-methoxytryptamine]
Case 2: seasonal depression, sleep not before 1 AM, melatonin at 6:30 PM plus light therapy 45 minutes
  sleep onset and depressive symptoms under treatment: go to sleep at 11:30 PM with remission of depressive symptoms
Case 3: history of seasonal depression, melatonin around 9 PM plus intermittent light therapy
  sleep onset under treatment: able to sleep at midnight without effort
